Measured values as given in US12552938B2, “Deuterated fluorophores” (HOWARD HUGHES MEDICAL INSTITUTE, priority 2018, dated 2026).
Entries after “also recorded” stand apart in the source; their conditions may differ. Counter-ions that a name gives are not always drawn. Values belong to the compound of their own block, whether it stands above or below them.

Tests used:
[1] = photobleaching of free dyes in vitro; format: physicochemical; conditions: for photobleaching / in vitro photostability compared to nondeuterated parent: free dye, 10 mM HEPES pH 7.3; for blue-shift of fluorescence emission during photobleaching due to dealkylation: spectra taken periodically during photobleaching; for chromostability during bleaching: compared to nondeuterated compounds 15 and 17
[2] = spectral properties of free dyes (absorbance, fluorescence emission, ε, Φ, intrinsic brightness); format: physicochemical; conditions: 10 mM HEPES pH 7.3; for extinction coefficient (ε) compared to nondeuterated parent / fluorescence quantum yield (Φ) compared to nondeuterated parent / intrinsic brightness (ε×Φ): free dye; for intrinsic brightness (ε×Φ): in vitro
[3] = relative singlet oxygen quantum yield of free dyes; format: physicochemical; conditions: free dye
HaloTag protein [4] = assay: fluorescence quantum yield of HaloTag-bound ligands in vitro; format: physicochemical; conditions: attached to HaloTag protein
Experimental: These dyes were then tested as protein conjugates in vitro and in living cells. […] Both J ligands could label HaloTag-histone H2B fusions in living cells (FIG. 24, FIG. 25).

[5] = tested on: histone H2B-HaloTag fusion; assay: labeling of cells expressing histone H2B-HaloTag fusion and imaging; format: cell-based, mammalian cell; conditions: 10 pM, 30 min, washed 30 minutes
histone H2B-HaloTag = assay: fluorescence lifetime in live cells measured using FLIM; format: cell-based; conditions: histone H2B-HaloTag-bound
Sox2-HaloTag fusions = assay: live-cell single-particle tracking of HaloTag ligands; format: cell-based; conditions: HaloTag conjugates; for brightness in cells (photons/s): equivalent imaging conditions
HaloTag protein [6] = assay: relative singlet oxygen quantum yield of HaloTag-bound ligands; format: physicochemical
[7] = deuterated vs nondeuterated TMR

SMILES: [2H]C([2H])([2H])N(c1ccc2c(-c3ccccc3C(=O)[O-])c3ccc(=[N+](C([2H])([2H])[2H])C([2H])([2H])[2H])cc-3oc2c1)C([2H])([2H])[2H] [Compound 14, 2-(3,6-Bis(bis(methyl-d3)amino)xanthylium-9-yl)benzoate]
photobleaching / in vitro photostability compared to nondeuterated parent [1]: slower rate of photobleaching
absorption and emission maxima / spectral shape compared to nondeuterated parent [2]: remarkably similar
increase in extinction coefficient at λmax (ε) compared to 1 [2, 7]: ~20%
increase in fluorescence quantum yield (Φ) compared to 1 [2, 7]: ~20%

SMILES: [2H]C1([2H])N(c2ccc3c(-c4ccccc4C(=O)[O-])c4ccc(=[N+]5C([2H])([2H])C([2H])([2H])C([2H])([2H])C([2H])([2H])C5([2H])[2H])cc-4oc3c2)C([2H])([2H])C([2H])([2H])C([2H])([2H])C1([2H])[2H] [Compound 20, 2-(3,6-Bis(piperidin-1-yl-d10)xanthylium-9-yl)benzoate]
chromostability during bleaching [1]: higher
absorption and emission maxima / spectral shape compared to nondeuterated parent [2]: no change in spectral shape
extinction coefficient (ε) compared to nondeuterated parent [2]: increases
fluorescence quantum yield (Φ) compared to nondeuterated parent [2]: increases

SMILES: [2H]C1([2H])N(c2ccc3c(-c4cc(C(=O)NCCOCCOCCCCCCCl)ccc4C(=O)[O-])c4ccc(=[N+]5C([2H])([2H])C([2H])([2H])C5([2H])[2H])cc-4oc3c2)C([2H])([2H])C1([2H])[2H] [Compound 24, 2-(3,6-Bis(azetidin-1-yl-d6)xanthylium-9-yl)-4-((2-(2-((6-chlorohexyl)oxy)ethoxy)ethyl)carbamoyl)benzoate]
fluorescence quantum yield of HaloTag conjugate compared to nondeuterated ligand (HaloTag protein [4]): higher
labeling of HaloTag-histone H2B fusions in living cells [5]: could label
fluorescence lifetime (τ) of HaloTag conjugate in cells compared to nondeuterated ligand (histone H2B-HaloTag): longer
photostability in cells (average track length of individual molecules) (Sox2-HaloTag fusions): no improvement
brightness in cells (photons/s) (Sox2-HaloTag fusions): higher brightness
1O2 generation of HaloTag-bound ligand compared to nondeuterated ligand (HaloTag protein [6]): significantly suppressed

SMILES: [2H]C1([2H])N(c2ccc3c(-c4cc(C(=O)NCCOCCOCCCCCCCl)ccc4C(=O)[O-])c4ccc(=[N+]5C([2H])([2H])C([2H])([2H])C([2H])([2H])C5([2H])[2H])cc-4oc3c2)C([2H])([2H])C([2H])([2H])C1([2H])[2H] [Compound 25, 2-(3,6-Bis(pyrrolidin-1-yl-d8)xanthylium-9-yl)-4-((2-(2-((6-chlorohexyl)oxy)ethoxy)ethyl)carbamoyl)benzoate]
labeling of HaloTag-histone H2B fusions in living cells [5]: excellent live-cell label
photostability in cells (average track length of individual molecules) (Sox2-HaloTag fusions): significantly longer tracks
brightness in cells (photons/s) (Sox2-HaloTag fusions): higher brightness

SMILES: [2H]C1([2H])N(c2ccc3c(c2)C(C)(C)C2=CC(=[N+]4C([2H])([2H])C([2H])([2H])C([2H])([2H])C4([2H])[2H])C=CC2=C3c2ccccc2C(=O)[O-])C([2H])([2H])C([2H])([2H])C1([2H])[2H] [Compound 29, 2-(10,10-Dimethyl-3,6-bis(pyrrolidin-1-yl-d8)anthracen-9-ylium-9(10H)-yl)benzoate]
extinction coefficient (ε) compared to nondeuterated parent [2]: substantial increases
fluorescence quantum yield (Φ) compared to nondeuterated parent [2]: substantial increases

SMILES: [2H]C1([2H])N(c2ccc3c(c2)[Si](C)(C)C2=CC(=[N+]4C([2H])([2H])C([2H])([2H])C4([2H])[2H])C=CC2=C3c2ccccc2C(=O)[O-])C([2H])([2H])C1([2H])[2H] [Compound 31, 2-(3,7-Bis(azetidin-1-yl-d6)-5,5-dimethyldibenzo[b,e]silin-10-ylium-10(5B)-yl)benzoate]
intrinsic brightness (ε×Φ) [2]: increase
extinction coefficient (ε) compared to nondeuterated parent [2]: modestly increased
fluorescence quantum yield (Φ) compared to nondeuterated parent [2]: did not elicit a large increase

SMILES: [2H]C1([2H])N(c2ccc3c(c2)[Si](C)(C)C2=CC(=[N+]4C([2H])([2H])C([2H])([2H])C([2H])([2H])C4([2H])[2H])C=CC2=C3c2ccccc2C(=O)[O-])C([2H])([2H])C([2H])([2H])C1([2H])[2H] [Compound 33, 2-(5,5-Dimethyl-3,7-bis(pyrrolidin-1-yl-d8)dibenzo[b,e]silin-10-ylium-10(5H)-yl)benzoate]
extinction coefficient (ε) compared to nondeuterated parent [2]: substantial increase
fluorescence quantum yield (Φ) compared to nondeuterated parent [2]: substantial increase

SMILES: [2H]C1([2H])N(c2ccc3c(c2)[Si](C)(C)C2=CC(=[N+]4C([2H])([2H])C([2H])([2H])C4([2H])[2H])C=CC2=C3c2cc(C(=O)NCCOCCOCCCCCCCl)ccc2C(=O)[O-])C([2H])([2H])C1([2H])[2H] [Compound 37, 2-(3,7-Bis(azetidin-1-yl-d6)-5,5-dimethyldibenzo[b,e]silin-10-ylium-10(51)-yl)-4-((2-(2-((6-chlorohexyl)oxy)ethoxy)ethyl)carbamoyl)benzoate]
fluorescence quantum yield of HaloTag conjugate compared to nondeuterated ligand (HaloTag protein [4]): substantial increase
labeling of HaloTag-histone H2B fusions in living cells [5]: suitable labels
fluorescence lifetime (τ) of HaloTag conjugate in cells compared to nondeuterated ligand (histone H2B-HaloTag): increased
photostability in cells (average track length of individual molecules) (Sox2-HaloTag fusions): more photostable
brightness in cells (photons/s) (Sox2-HaloTag fusions): higher brightness
1O2 generation of HaloTag-bound ligand compared to nondeuterated ligand (HaloTag protein [6]): lower

SMILES: [2H]C1([2H])N(c2ccc3c(c2)[Si](C)(C)C2=CC(=[N+]4C([2H])([2H])C([2H])([2H])C([2H])([2H])C4([2H])[2H])C=CC2=C3c2cc(C(=O)NCCOCCOCCCCCCCl)ccc2C(=O)[O-])C([2H])([2H])C([2H])([2H])C1([2H])[2H] [Compound 38, 4-((2-(2-((6-Chlorohexyl)oxy)ethoxy)ethyl)carbamoyl)-2-(5,5-dimethyl-3,7-bis(pyrrolidin-1-yl-d8)dibenzo[b,e]silin-10-ylium-10(5H)-yl)benzoate]
labeling of HaloTag-histone H2B fusions in living cells [5]: improved cellular labeling
photostability in cells (average track length of individual molecules) (Sox2-HaloTag fusions): more photostable; also recorded: longest average single-molecule track length
brightness in cells (photons/s) (Sox2-HaloTag fusions): highest photons/s

SMILES: [2H]C1([2H])N(c2ccc3nc4ccc(=[N+]5C([2H])([2H])C([2H])([2H])C([2H])([2H])C5([2H])[2H])cc-4oc3c2)C([2H])([2H])C([2H])([2H])C1([2H])[2H] [Compound 44, 3,7-Bis(pyrrolidin-1-yl-d8)phenoxazin-5-ium trifluoroacetate]
fluorescence quantum yield (Φ) compared to nondeuterated parent [2]: substantial increase

The next lines start with the values.

blue-shift of fluorescence emission during photobleaching due to dealkylation [1]: 9 nm
SMILES: O=C1OC2(c3ccc(N4CCC4)cc3Oc3cc(N4CCC4)ccc32)c2ccccc21 [Compound 15, reference compound]

singlet oxygen (1O2) quantum yield compared to nondeuterated parent [3]: significantly lower
photobleaching / in vitro photostability compared to nondeuterated parent [1]: no improvement
blue-shift of fluorescence emission during photobleaching due to dealkylation [1]: 4 nm
extinction coefficient (ε) compared to nondeuterated parent [2]: no improvement
fluorescence quantum yield (Φ) compared to nondeuterated parent [2]: no improvement
SMILES: [2H]C1([2H])N(c2ccc3c(-c4ccccc4C(=O)[O-])c4ccc(=[N+]5C([2H])([2H])C([2H])([2H])C5([2H])[2H])cc-4oc3c2)C([2H])([2H])C1([2H])[2H] [Compound 16, 2-(3,6-Bis(azetidin-1-yl-d6)xanthylium-9-yl)benzoate]

chromostability during bleaching [1]: higher
photobleaching / in vitro photostability compared to nondeuterated parent [1]: improved in vitro photostability
absorption and emission maxima / spectral shape compared to nondeuterated parent [2]: no change in spectral shape
intrinsic brightness (ε×Φ) [2]: equivalent brightness
extinction coefficient (ε) compared to nondeuterated parent [2]: increases
fluorescence quantum yield (Φ) compared to nondeuterated parent [2]: increases
SMILES: [2H]C1([2H])N(c2ccc3c(-c4ccccc4C(=O)[O-])c4ccc(=[N+]5C([2H])([2H])C([2H])([2H])C([2H])([2H])C5([2H])[2H])cc-4oc3c2)C([2H])([2H])C([2H])([2H])C1([2H])[2H] [Compound 18, 2-(3,6-Bis(pyrrolidin-1-yl-d8)xanthylium-9-yl)benzoate]

absorption and emission maxima / spectral shape compared to nondeuterated parent [2]: no change in spectral shape
extinction coefficient (ε) compared to nondeuterated parent [2]: increases
fluorescence quantum yield (Φ) compared to nondeuterated parent [2]: increases
SMILES: [2H]C1([2H])OC([2H])([2H])C([2H])([2H])N(c2ccc3c(-c4ccccc4C(=O)[O-])c4ccc(=[N+]5C([2H])([2H])C([2H])([2H])OC([2H])([2H])C5([2H])[2H])cc-4oc3c2)C1([2H])[2H] [Compound 22, 2-(3,6-Bis(morpholino-d8)xanthylium-9-yl)benzoate]

extinction coefficient (ε) compared to nondeuterated parent [2]: substantial increases
fluorescence quantum yield (Φ) compared to nondeuterated parent [2]: substantial increases
SMILES: [2H]C1([2H])N(c2ccc3c(c2)C(C)(C)C2=CC(=[N+]4C([2H])([2H])C([2H])([2H])C4([2H])[2H])C=CC2=C3c2ccccc2C(=O)[O-])C([2H])([2H])C1([2H])[2H] [Compound 27, 2-(3,6-Bis(azetidin-1-yl-d6)-10,10-dimethylanthracen-9-ylium-9(10H)-yl)benzoate]

extinction coefficient (ε) compared to nondeuterated parent [2]: similar
fluorescence quantum yield (Φ) compared to nondeuterated parent [2]: small decrease
SMILES: [2H]C1([2H])N(c2ccc3c(C)cc(=O)oc3c2)C([2H])([2H])C1([2H])[2H] [Compound 40, 7-(Azetidin-1-yl-d6)-4-methyl-2H-chromen-2-one]

extinction coefficient (ε) compared to nondeuterated parent [2]: equivalent
fluorescence quantum yield (Φ) compared to nondeuterated parent [2]: significantly higher
SMILES: [2H]C1([2H])N(c2ccc3c(C)cc(=O)oc3c2)C([2H])([2H])C([2H])([2H])C1([2H])[2H] [Compound 42, 4-Methyl-7-(pyrrolidin-1-yl-d8)-2H-chromen-2-one]
